# Test system: men and women with overactive bladder
# Assay: Phase 3 study of vibegron 75 mg vs placebo and tolterodine ER 4 mg, 12 weeks, efficacy (voiding and urine volume diary)
# Assay type: in vivo, human
# Settings: for First 50% Reduction in Urgency Episodes, Events / First 100% Reduction in UUI Episodes, Events: events of Events/Censored
# Description: Enrollment of patients included individuals with OAB Wet (those with UUI, the involuntary loss of urine accompanied by urgency) and OAB Dry (those without UUI). A total of 1,518 patients were randomized across 215 study sites into one of three groups for a 12-week treatment period.
# The study consisted of a Screening Period (1 to 5 weeks), a single-blind Run-in Period (2 weeks), a randomized double-blind Treatment Period (12 weeks), and a Follow-up Period (4 weeks).
# Tolterodine ER 4 mg was the active control. […] Between the Baseline and Week 12 Visits, patients had study assessments at Week 4 and Week 8.
# The Patient Voiding Diary was used by participants (via the eDiary or paper Diary) to record the frequency of daily OAB symptoms including all micturitions, urgency, incontinence, and main reason for incontinence by selecting the respective box for each symptom occurring during the course of a given day and night.
# Urine volume data were collected separately by patients using the Urine Volume component of the eDiary, or the paper Urine Volume Chart. The Urine Volume Chart is a tool used in clinical practice and clinical investigation to assess voiding functions over a 24-hour period and is regarded as a useful instrument in the investigation of patients with voiding symptoms. Urine volume may be collected during any one (1) of the 7 Diary Days prior to the visit, and it should be recorded for ˜24 hours starting from the time the patient gets up for the day and continues until the time the patient gets up for the day on the next day.
# For the purpose of this study, the number of micturitions was defined as the number of times a patient has voided in the toilet as indicated on the Patient Voiding Diary. Average daily micturitions were calculated using the daily entries in the Patient Voiding Diary, which was completed over the 7 days prior to each study visit. Average daily number of micturitions were calculated as the total number of micturitions that occurred on a Complete Diary Day divided by the number of Complete Diary Days in the Patient Voiding Diary. A complete diary day required confirmation by the patient in the Patient Voiding Diary that all voids and leakages had been recorded for the diary day. Baseline was defined as the average number of micturitions occurring during the last evaluable diary prior to the Baseline Visit.
# The number of UUI episodes was defined as the number of times a patient had checked “urge” as the reason for accidental urine leakage. Average daily UUI episodes at each study visit were calculated in the same manner as described above for the micturition endpoint. The UUI endpoint were analyzed using only OAB Wet patients.
# For the analysis of the co-primary endpoints (change from baseline in average number of daily micturitions at Week 12 and change from baseline in average number of daily urge urinary incontinence episodes at Week 12, and placebo adjustment of each), a mixed model for repeated measure (MMRM) with restricted maximum likelihood estimation was used. This model corrects for dropout and accounts for the fact that measurements taken on the same patient over time tend to be correlated by using all available information on patients within the same covariate set to derive an estimate of the treatment effect for a dropout-free population. The analysis model for each efficacy endpoint includes terms for treatment, visit, OAB Type (Wet vs Dry), Sex (Female vs Male), Region (US vs Rest of World), baseline score, and interaction of visit by treatment.
# Primary inferences were drawn from treatment differences for the changes from baseline derived from the MMRM models at Week 12. As part of secondary objectives, the treatment differences for each post baseline visit were also derived using the same MMRM model. […]
# [1] = Week 12, Age ≥ 75 years (posthoc analysis)
# [2] = Week 12, No Prior ACH Use in last 12 Mo.
# [3] = Week 12, No Prior B3 Agonist Use in last 12 Mo.
# [4] = Week 12, Prior ACH Use in last 12 Mo.
# [5] = Week 12, Prior B3 Agonist Use in last 12 Mo.
structure (smiles),measurement,setting,value
"O=C(Nc1ccc(C[C@@H]2CC[C@H]([C@H](O)c3ccccc3)N2)cc1)[C@@H]1CCc2nccc(=O)n21 [Vibegron, (6S)-N-[4-[[(2S,5R)−5-[(R)-hydroxy(phenyl)methyl]pyrrolidin−2-yl]methyl]phenyl]−4-oxo−7,8-dihydro−6H-pyrrolo[1,2-a]pyrimidine−6-carboxamide]","Change from baseline in average volume voided per micturition, LS Mean (SE)",Week 8,21.4 (3.20) mL
same,Estimated Incidence of Subjects with 50% Decrease from Baseline (urgency episodes),Week 8,31.8
same,Estimated Incidence of Subjects with 100% Decrease from Baseline (UUI episodes),Week 8,21.4
same,"Total Incontinence, Active - Placebo LS Mean Difference (SE)",Week 8,−0.7 (0.15)
same,"Urgency episodes, Active - Placebo LS Mean Difference",Week 8,−0.8
same,"First 50% Reduction in Urgency Episodes, Events",Week 8,166/360
same,"First 100% Reduction in UUI Episodes, Events",Week 8,86/317
same,"Average Daily Number of Total Incontinence, Mean (SD)",Week 12,1.89 (3.120)
same,"Average daily number of urgency episodes, Mean (SD)",Week 12,5.29 (4.500)
same,"Average volume voided per micturition, Active - Placebo LS Mean Difference",Week 12,21.2 mL
same,"Average volume voided per micturition, Week 12 Mean (SD)",Week 12,175.3 (81.78) mL
same,"Change from Baseline in Average Daily Number of Total Incontinence, LS Mean (SE)",Week 12,−2.3 (0.15)
same,"Change from baseline in average daily number of urgency episodes, LS Mean",Week 12,−2.7
same,"Change from baseline in average volume voided per micturition, LS Mean (SE)",Week 12,23.5 (3.26) mL
same,Estimated Incidence of Subjects with 50% Decrease from Baseline (urgency episodes),Week 12,43.8
same,Estimated Incidence of Subjects with 100% Decrease from Baseline (UUI episodes),Week 12,30.0
same,"Total Incontinence, Active - Placebo LS Mean Difference (SE)",Week 12,−0.7 (0.16)
same,"Urgency episodes, Active - Placebo LS Mean Difference",Week 12,−0.7
same,Micturitions: Week 12 CFB Mean (descriptive statistics),"Week 12, <65 yrs",−1.99
same,UUI: Week 12 CFB Mean (descriptive statistics),"Week 12, African American",−1.61
same,UUI: Week 12 CFB Median,"Week 12, African American",−1.26
same,Micturitions: Week 12 CFB LS Mean (95% CI),"Week 12, Age < 65 years",−1.7
same,UUI: Week 12 CFB LS Mean (95% CI),"Week 12, Age < 65 years",−2.0
same,UUI: Week 12 CFB Mean (descriptive statistics),"Week 12, Age < 65 years",−2.08
same,Micturitions: Week 12 CFB LS Mean (95% CI),"Week 12, Age ≥ 65 years",−1.9
same,UUI: Week 12 CFB LS Mean (95% CI),"Week 12, Age ≥ 65 years",−2.0
same,UUI: Week 12 CFB Mean (descriptive statistics),"Week 12, Age ≥ 65 years",−1.94
same,Micturitions: Week 12 CFB LS Mean (95% CI),[1],−2.1
same,UUI: Week 12 CFB LS Mean (95% CI),[1],−2.0
same,UUI: Week 12 CFB Mean (descriptive statistics),"Week 12, Asian",−0.07
same,UUI: Week 12 CFB Median,"Week 12, Asian",0.00
same,Micturitions: Week 12 CFB LS Mean (95% CI),"Week 12, Females",−1.9
same,Micturitions: Week 12 CFB Mean (descriptive statistics),"Week 12, Females",−2.05
same,UUI: Week 12 CFB LS Mean (95% CI),"Week 12, Females",−2.1
same,UUI: Week 12 CFB Mean (descriptive statistics),"Week 12, Females",−2.10
same,Micturitions: Week 12 CFB LS Mean (95% CI),"Week 12, Males",−1.7
same,Micturitions: Week 12 CFB Mean (descriptive statistics),"Week 12, Males",−1.97
same,UUI: Week 12 CFB LS Mean (95% CI),"Week 12, Males",−1.6
same,UUI: Week 12 CFB Mean (descriptive statistics),"Week 12, Males",−1.35
same,Micturitions: Week 12 CFB Mean (descriptive statistics),"Week 12, Males with BPH",−1.50
same,UUI: Week 12 CFB Mean (descriptive statistics),"Week 12, Males with BPH",−1.09
same,Micturitions: Week 12 CFB Mean (descriptive statistics),"Week 12, Males without BPH",−2.26
same,UUI: Week 12 CFB Mean (descriptive statistics),"Week 12, Males without BPH",−1.51
same,Micturitions: Week 12 CFB Mean (descriptive statistics),[2],−2.05
same,UUI: Week 12 CFB Mean (descriptive statistics),[2],−2.12
same,Micturitions: Week 12 CFB Mean (descriptive statistics),[3],−2.01
same,UUI: Week 12 CFB Mean (descriptive statistics),[3],−2.03
same,Micturitions: Week 12 CFB LS Mean (95% CI),"Week 12, Non-White",−1.7
same,Micturitions: Week 12 CFB Mean (descriptive statistics),"Week 12, Non-White",−2.18
same,UUI: Week 12 CFB LS Mean (95% CI),"Week 12, Non-White",−1.3
same,UUI: Week 12 CFB Mean (descriptive statistics),"Week 12, Non-White",−1.14
same,UUI: Week 12 CFB Median,"Week 12, Non-White",−1.00
same,Micturitions: Week 12 CFB LS Mean (95% CI),"Week 12, Overall",−1.8
same,Micturitions: Week 12 CFB Mean (descriptive statistics),"Week 12, Overall",−2.04
same,UUI: Week 12 CFB LS Mean (95% CI),"Week 12, Overall",−2.0
same,UUI: Week 12 CFB Mean (descriptive statistics),"Week 12, Overall",−2.01
same,Micturitions: Week 12 CFB Mean (descriptive statistics),[4],−1.97
same,UUI: Week 12 CFB Mean (descriptive statistics),[4],−1.46
same,Micturitions: Week 12 CFB Mean (descriptive statistics),[5],−2.83
same,UUI: Week 12 CFB Mean (descriptive statistics),[5],−1.64
same,Micturitions: Week 12 CFB LS Mean (95% CI),"Week 12, Region: Non-US",−1.8
same,Micturitions: Week 12 CFB Mean (descriptive statistics),"Week 12, Region: Non-US",−2.26
same,UUI: Week 12 CFB LS Mean (95% CI),"Week 12, Region: Non-US",−2.4
same,UUI: Week 12 CFB Mean (descriptive statistics),"Week 12, Region: Non-US",−2.60
same,Micturitions: Week 12 CFB LS Mean (95% CI),"Week 12, Region: US",−1.9
same,Micturitions: Week 12 CFB Mean (descriptive statistics),"Week 12, Region: US",−2.01
same,UUI: Week 12 CFB LS Mean (95% CI),"Week 12, Region: US",−1.9
same,UUI: Week 12 CFB Mean (descriptive statistics),"Week 12, Region: US",−1.92
same,Micturitions: Week 12 CFB LS Mean (95% CI),"Week 12, White",−1.8
same,Micturitions: Week 12 CFB Mean (descriptive statistics),"Week 12, White",−2.01
same,UUI: Week 12 CFB LS Mean (95% CI),"Week 12, White",−2.2
same,UUI: Week 12 CFB Mean (descriptive statistics),"Week 12, White",−2.23
same,UUI: Week 12 CFB Median,"Week 12, White",−1.78
same,"Micturitions, Week 12 LS Mean Change from Baseline (Placebo-Adjusted)","Week 12, co-primary endpoint",−0.5
same,"UUI Episodes, Week 12 LS Mean Change from Baseline (Placebo-Adjusted)","Week 12, co-primary endpoint",−0.6
same,"First 50% Reduction in Urgency Episodes, Events",Week 12,225/301
same,"First 100% Reduction in UUI Episodes, Events",Week 12,119/284
same,"Total Incontinence Episodes, Week 12 LS Mean Change from Baseline (Placebo-Adjusted)","Week 12, secondary endpoint",−0.7
same,"Urgency Episodes, Week 12 LS Mean Change from Baseline (Placebo-Adjusted)","Week 12, secondary endpoint",−0.7
same,"Micturitions, change at Week 12, mean (SD)","Week 12, subpopulation Age ≥65 years",−2.10 (2.83)

# Reference: patent US20230027066A1 (Urovant Sciences GmbH, priority 2019, published 2023)
